# Laboratory results published in ChEMBL document CHEMBL3739370, “Synthesis and evaluation of amide, sulfonamide and urea benzisoxazole derivatives as potential atypical antipsychotics” (Medchemcomm, 2015).
# pIC50, pKi: −log10 of the molar value.
# How the values were obtained:
# D(2) dopamine receptor = D(2) dopamine receptor (Rattus norvegicus, UniProt P61169); assay: Displacement of [3H]spiperone from dopamine D2 receptor in rat striatum
# [1] = molecular target: T1, 5-hydroxytryptamine receptor 1A (Rattus norvegicus, UniProt P19327); assay: Displacement of [3H]8-OH-DPAT from 5HT1A receptor in rat brain cortex; assay type: tissue-based
# T1 sequence (P19327 whole entry): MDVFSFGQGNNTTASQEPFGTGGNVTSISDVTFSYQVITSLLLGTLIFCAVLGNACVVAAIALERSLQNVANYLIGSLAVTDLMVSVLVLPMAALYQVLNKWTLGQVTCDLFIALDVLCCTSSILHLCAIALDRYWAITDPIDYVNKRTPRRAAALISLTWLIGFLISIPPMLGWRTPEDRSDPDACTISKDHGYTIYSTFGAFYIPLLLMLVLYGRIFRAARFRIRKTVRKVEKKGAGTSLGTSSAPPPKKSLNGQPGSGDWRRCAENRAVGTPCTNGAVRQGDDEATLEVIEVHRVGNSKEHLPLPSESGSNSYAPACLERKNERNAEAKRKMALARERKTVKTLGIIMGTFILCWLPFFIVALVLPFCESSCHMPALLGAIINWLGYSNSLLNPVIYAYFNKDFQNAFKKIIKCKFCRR
# [2] = molecular target: 5-hydroxytryptamine receptor 2A (Rattus norvegicus, UniProt P14842); assay: Displacement of [3H]ketanserin from 5HT2A receptor in rat brain cortex; assay type: tissue-based
# 5-hydroxytryptamine receptor 2A, sequence (P14842 whole entry): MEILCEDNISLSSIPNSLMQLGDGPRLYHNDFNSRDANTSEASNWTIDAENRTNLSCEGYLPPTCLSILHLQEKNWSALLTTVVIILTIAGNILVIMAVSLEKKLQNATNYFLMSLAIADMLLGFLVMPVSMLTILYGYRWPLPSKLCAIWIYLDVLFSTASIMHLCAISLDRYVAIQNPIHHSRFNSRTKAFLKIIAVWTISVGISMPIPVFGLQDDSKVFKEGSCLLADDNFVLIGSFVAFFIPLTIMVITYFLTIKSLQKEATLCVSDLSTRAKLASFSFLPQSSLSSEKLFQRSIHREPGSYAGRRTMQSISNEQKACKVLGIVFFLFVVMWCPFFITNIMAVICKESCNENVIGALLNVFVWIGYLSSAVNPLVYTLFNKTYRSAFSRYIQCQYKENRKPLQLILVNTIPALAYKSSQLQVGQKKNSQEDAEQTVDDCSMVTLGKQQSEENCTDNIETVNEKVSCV
# D(3) dopamine receptor = D(3) dopamine receptor (Rattus norvegicus, UniProt P19020); assay: Displacement of [3H]7-OH-DPAT from dopamine D3 receptor in rat olfactory tubercle; assay type: tissue-based
# D(3) dopamine receptor, sequence (P19020 whole entry): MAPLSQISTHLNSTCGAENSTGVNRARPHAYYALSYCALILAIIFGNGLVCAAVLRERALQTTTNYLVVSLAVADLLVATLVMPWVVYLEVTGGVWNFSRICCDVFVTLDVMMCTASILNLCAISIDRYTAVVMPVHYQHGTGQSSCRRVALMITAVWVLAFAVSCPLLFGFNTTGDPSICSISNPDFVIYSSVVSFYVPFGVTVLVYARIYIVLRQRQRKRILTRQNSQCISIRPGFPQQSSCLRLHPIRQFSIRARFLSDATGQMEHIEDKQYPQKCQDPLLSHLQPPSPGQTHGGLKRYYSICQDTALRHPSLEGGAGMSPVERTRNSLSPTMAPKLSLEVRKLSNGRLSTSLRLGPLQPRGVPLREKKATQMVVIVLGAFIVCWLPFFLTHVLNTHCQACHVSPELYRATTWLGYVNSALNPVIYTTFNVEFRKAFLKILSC
# Histamine H1 receptor = Histamine H1 receptor (Cavia porcellus, UniProt P31389); assay: Displacement of [3H]mepyramine from histamine H1 receptor in guinea pig cerebellum
# Histamine H1 receptor, sequence (P31389 whole entry): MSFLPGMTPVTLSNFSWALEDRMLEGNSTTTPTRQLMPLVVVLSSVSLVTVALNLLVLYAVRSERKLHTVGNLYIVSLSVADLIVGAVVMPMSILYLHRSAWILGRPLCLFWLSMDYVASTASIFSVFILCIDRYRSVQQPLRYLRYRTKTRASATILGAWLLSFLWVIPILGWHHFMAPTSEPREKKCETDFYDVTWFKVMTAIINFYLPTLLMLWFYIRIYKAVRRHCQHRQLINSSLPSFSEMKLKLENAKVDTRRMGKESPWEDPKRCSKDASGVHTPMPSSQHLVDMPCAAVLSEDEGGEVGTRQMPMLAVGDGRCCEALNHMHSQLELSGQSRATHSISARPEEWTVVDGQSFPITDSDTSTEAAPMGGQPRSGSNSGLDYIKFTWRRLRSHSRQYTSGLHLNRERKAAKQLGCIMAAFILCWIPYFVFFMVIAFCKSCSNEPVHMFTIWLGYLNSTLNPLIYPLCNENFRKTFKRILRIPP
# [3] = molecular target: T2, Adrenergic receptor alpha-1 (Rattus norvegicus, UniProt P15823+P23944+P43140); assay: Displacement of [3H]prazosin from adrenergic alpha1 receptor in rat brain cortex; assay type: tissue-based
# T2 sequence (P15823 whole entry): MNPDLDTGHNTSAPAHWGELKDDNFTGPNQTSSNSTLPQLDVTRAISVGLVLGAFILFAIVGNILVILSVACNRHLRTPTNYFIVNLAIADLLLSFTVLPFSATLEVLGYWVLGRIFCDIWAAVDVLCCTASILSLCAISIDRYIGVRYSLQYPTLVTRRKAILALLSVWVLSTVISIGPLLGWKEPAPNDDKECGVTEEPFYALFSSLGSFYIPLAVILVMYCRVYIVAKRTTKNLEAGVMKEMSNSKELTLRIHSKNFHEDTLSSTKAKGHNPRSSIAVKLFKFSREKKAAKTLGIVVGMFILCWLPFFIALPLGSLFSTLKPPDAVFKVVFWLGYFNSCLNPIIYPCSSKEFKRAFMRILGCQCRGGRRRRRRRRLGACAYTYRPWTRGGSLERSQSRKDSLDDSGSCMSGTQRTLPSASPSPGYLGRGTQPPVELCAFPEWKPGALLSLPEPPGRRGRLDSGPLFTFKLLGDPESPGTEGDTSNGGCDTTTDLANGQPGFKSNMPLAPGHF
# T2 sequence (P23944 whole entry): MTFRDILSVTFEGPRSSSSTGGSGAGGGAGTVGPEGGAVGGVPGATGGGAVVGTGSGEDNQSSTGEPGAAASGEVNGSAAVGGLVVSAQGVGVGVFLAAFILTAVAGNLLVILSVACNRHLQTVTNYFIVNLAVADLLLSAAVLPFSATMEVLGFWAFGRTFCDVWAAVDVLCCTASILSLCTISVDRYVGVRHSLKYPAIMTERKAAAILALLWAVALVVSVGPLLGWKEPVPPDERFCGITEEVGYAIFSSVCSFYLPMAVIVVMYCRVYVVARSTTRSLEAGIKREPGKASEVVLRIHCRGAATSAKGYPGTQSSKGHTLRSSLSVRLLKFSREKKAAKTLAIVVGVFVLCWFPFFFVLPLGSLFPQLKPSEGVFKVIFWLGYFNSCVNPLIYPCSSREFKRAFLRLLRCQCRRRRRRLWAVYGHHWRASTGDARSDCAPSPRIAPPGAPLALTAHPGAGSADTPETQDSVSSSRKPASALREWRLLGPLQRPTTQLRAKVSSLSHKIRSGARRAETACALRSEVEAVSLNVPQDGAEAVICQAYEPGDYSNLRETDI
# T2 sequence (P43140 whole entry): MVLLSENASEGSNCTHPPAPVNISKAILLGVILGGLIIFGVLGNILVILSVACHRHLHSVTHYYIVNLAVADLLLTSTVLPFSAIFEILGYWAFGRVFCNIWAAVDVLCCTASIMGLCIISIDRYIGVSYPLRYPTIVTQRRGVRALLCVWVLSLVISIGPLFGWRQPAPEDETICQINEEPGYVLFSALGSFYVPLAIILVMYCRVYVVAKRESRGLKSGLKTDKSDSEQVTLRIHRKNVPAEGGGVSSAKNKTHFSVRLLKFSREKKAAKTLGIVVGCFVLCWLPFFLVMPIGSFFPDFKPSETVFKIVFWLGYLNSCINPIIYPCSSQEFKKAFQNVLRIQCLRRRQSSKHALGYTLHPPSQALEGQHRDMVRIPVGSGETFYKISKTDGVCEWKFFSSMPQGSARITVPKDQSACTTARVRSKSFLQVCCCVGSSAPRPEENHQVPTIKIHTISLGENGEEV
# [4] = molecular target: Voltage-gated inwardly rectifying potassium channel KCNH2 (Homo sapiens, UniProt Q12809); assay: Inhibition of human ERG
# Voltage-gated inwardly rectifying potassium channel KCNH2, sequence (Q12809 whole entry): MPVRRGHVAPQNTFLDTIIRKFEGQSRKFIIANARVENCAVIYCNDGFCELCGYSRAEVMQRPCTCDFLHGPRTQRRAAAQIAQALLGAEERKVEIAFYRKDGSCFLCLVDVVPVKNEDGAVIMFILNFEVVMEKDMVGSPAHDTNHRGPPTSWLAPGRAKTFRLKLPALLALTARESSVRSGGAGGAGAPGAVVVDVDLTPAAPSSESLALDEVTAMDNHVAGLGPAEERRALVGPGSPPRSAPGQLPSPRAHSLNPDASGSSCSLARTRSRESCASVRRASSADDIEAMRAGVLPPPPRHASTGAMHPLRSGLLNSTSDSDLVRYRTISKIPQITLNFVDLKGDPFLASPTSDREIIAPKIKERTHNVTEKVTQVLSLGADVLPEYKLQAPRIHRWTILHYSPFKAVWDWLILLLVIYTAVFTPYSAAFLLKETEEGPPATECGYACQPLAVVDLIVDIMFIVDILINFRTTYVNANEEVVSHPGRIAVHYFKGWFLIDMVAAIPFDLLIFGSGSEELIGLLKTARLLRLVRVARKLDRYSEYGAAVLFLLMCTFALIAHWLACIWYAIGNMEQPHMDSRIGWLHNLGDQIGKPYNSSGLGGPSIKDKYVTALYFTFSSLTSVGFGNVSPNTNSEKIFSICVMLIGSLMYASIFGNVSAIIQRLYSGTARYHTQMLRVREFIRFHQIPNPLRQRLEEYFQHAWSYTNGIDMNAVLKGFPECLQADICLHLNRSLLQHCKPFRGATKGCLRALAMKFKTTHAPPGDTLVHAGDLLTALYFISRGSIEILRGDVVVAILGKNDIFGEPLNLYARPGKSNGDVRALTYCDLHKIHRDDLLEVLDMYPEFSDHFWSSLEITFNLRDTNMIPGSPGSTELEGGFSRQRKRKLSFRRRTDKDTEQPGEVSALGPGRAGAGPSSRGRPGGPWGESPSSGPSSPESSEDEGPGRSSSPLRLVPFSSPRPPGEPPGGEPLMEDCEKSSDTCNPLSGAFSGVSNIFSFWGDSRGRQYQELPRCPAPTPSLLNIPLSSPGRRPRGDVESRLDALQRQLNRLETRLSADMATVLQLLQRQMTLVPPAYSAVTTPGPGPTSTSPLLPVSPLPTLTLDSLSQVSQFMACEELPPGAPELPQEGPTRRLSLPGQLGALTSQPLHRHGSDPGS
# D(2) dopamine receptor, sequence (P61169 whole entry): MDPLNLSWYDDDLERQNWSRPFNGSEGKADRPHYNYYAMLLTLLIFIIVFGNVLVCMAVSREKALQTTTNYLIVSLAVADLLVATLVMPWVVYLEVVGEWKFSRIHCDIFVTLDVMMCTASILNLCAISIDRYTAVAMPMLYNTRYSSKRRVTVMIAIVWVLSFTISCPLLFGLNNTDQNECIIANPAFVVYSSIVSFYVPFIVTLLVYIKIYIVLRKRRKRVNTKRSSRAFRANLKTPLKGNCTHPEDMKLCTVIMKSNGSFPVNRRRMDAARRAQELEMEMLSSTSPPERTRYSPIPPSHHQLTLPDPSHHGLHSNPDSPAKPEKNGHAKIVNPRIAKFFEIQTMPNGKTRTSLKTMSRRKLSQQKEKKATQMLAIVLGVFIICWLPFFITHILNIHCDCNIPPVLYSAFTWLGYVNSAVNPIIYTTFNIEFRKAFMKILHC
pKi (D(2) dopamine receptor),pKi [1],pKi [2],pKi (D(3) dopamine receptor),pKi (Histamine H1 receptor),Ki [3] [µM],Structure (SMILES),pIC50 [4]
7.49,7.66,7.80,6.63,7.36,1.0982,O=S(=O)(c1ccc(C(F)(F)F)cc1)N1CCC(CN2CCC(c3noc4cc(F)ccc34)CC2)CC1,5.86
8.06,7.77,9.10,7.78,5.55,2.3562,O=[N+]([O-])c1ccc(S(=O)(=O)N2CCC(CN3CCC(c4noc5cc(F)ccc45)CC3)CC2)cc1,5.42
